In patent US20060276464A1, “Diarylsulfone sulfonamides and use thereof” (Wyeth, priority 2005, published 2006) one finds fold induction and EC50 data, which are given here for 13 molecules.

This experiment concerns the target T1, SFRP-1 (Homo sapiens, UniProt Q8N474).
T1 sequence (Q8N474 32-314): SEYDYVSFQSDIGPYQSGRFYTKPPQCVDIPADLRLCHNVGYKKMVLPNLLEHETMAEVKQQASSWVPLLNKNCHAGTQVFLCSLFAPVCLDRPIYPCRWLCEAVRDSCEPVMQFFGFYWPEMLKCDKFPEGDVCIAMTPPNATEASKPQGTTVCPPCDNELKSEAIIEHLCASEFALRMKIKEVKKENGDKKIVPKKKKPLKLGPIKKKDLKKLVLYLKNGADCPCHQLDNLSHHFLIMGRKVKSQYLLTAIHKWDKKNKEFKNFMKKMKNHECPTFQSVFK
Briefly: Cell-based assay for in vitro measurement of SFRP-1/SARP2 antagonist activity (U2OS cells co-transfected with 16x TCF-tk-Luciferase reporter, Wnt and hSFRP-1).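 For all read-outs here: U2OS cells co-transfected with a TCF-tk luciferase reporter, a Wnt vector, hSFRP-1 or empty vector and CMV-βgal, luciferase luminescence read in cell lysates alongside βgal activity.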 Particulars: for fold induction at 10 µM: U2OS, read-out: Fold Induction with SFRP-1, U2OS cells, single dose 10 μM, luciferase reporter, fold induction over SFRP-1 control. In general terms: A reporter such as luciferase makes a cellular process visible.

As for `CC(C)(CO)NS(=O)(=O)c1cc(S(=O)(=O)c2ccccc2)ccc1Cl` [Example 655, 2-chloro-N-(2-hydroxy-1,1-dimethylethyl)-5-(phenylsulfonyl)benzenesulfonamide], the fold induction at 10 µM stood at 1.1.

As for `N#CCNS(=O)(=O)c1cc(S(=O)(=O)c2ccccc2)ccc1Cl` [Example 663, 2-chloro-N-(cyanomethyl)-5-(phenylsulfonyl)benzenesulfonamide], the fold induction at 10 µM worked out at 1.

Take `Cc1ccc(S(=O)(=O)c2ccccc2)cc1S(=O)(=O)NCCC(=O)N1CCCC1` [Example 665, 2-methyl-N-(3-oxo-3-pyrrolidin-1-ylpropyl)-5-(phenylsulfonyl)benzenesulfonamide]: the fold induction at 10 µM was found to be 1.3.

As for `Cc1ccc(S(=O)(=O)c2ccccc2)cc1S(=O)(=O)NCCC(=O)NC(C)(C)C` [Example 666, N-(tert-butyl)-N^3-{[2-methyl-5-(phenylsulfonyl)phenyl]sulfonyl}-β-alaninamide], a half-maximal effect (EC50) was put at 27.2 µM and the fold induction at 10 µM turned out to be 1.5.

Regarding `Cc1ccc(S(=O)(=O)c2ccccc2)cc1S(=O)(=O)NCCC(=O)NC1CCCc2ccccc21` (stereo not drawn) [Example 667, N^3-{[2-methyl-5-(phenylsulfonyl)phenyl]sulfonyl}-N-(1,2,3,4-tetrahydronaphthalen-1-yl)-β-alaninamide], the fold induction at 10 µM came to 0.9.

Take `Cc1ccc(S(=O)(=O)c2ccccc2)cc1S(=O)(=O)NCCC(=O)N(C)c1ccccc1` [Example 668, N-methyl-N^3-{[2-methyl-5-(phenylsulfonyl)phenyl]sulfonyl}-N-phenyl-β-alaninamide]: the fold induction at 10 µM came to 1.4.

For `Cc1ccc2c(c1)CCCN2C(=O)CCNS(=O)(=O)c1cc(S(=O)(=O)c2ccccc2)ccc1C` [Example 669, 2-methyl-N-[3-(6-methyl-3,4-dihydroquinolin-1(2H)-yl)-3-oxopropyl]-5-(phenylsulfonyl)benzenesulfonamide], the fold induction at 10 µM turned out to be 0.9.

For `O=S(=O)(NCCO)c1cc(S(=O)(=O)c2ccccc2)ccc1Cl` [Example 673, 2-chloro-N-(2-hydroxyethyl)-5-(phenylsulfonyl)benzenesulfonamide], a half-maximal response (EC50) required 15.9 µM and the fold induction at 10 µM was determined as 2.

On to `CC(CO)NS(=O)(=O)c1cc(S(=O)(=O)c2ccccc2)ccc1Cl` (centres unmarked) [Example 674, 2-chloro-N-(2-hydroxy-1-methylethyl)-5-(phenylsulfonyl)benzenesulfonamide], for which the EC50 is 24.1 µM and the fold induction at 10 µM came out at 2.

Take `O=S(=O)(NC(CO)CO)c1cc(S(=O)(=O)c2ccccc2)ccc1Cl` [Example 675, 2-chloro-N-[2-hydroxy-1-(hydroxymethyl)ethyl]-5-(phenylsulfonyl)benzenesulfonamide]: the EC50 was found to be 41.5 µM and the fold induction at 10 µM was 1.7.

`C[C@H](NS(=O)(=O)c1cc(S(=O)(=O)c2ccccc2)ccc1C(F)(F)F)[C@H](O)c1ccccc1` [Example 685, N-[(1S,2R)-2-hydroxy-1-methyl-2-phenylethyl]-5-(phenylsulfonyl)-2-(trifluoromethyl)benzenesulfonamide]: the fold induction at 10 µM is 1.5.

Consider `O=S(=O)(NC1CCN(C(=S)c2ccc(C(F)(F)F)cc2)CC1)c1cc(S(=O)(=O)c2ccccc2)ccc1C(F)(F)F` [Example 724, 5-(phenylsulfonyl)-2-(trifluoromethyl)-N-(1-{[4-(trifluoromethyl)phenyl]carbonothioyl}piperidin-4-yl)benzenesulfonamide], for which the fold induction at 10 µM was 1.7.

In the case of `CC(C)c1ccc(S(=O)(=O)c2ccc(F)cc2)cc1S(=O)(=O)NC1CCN(C(=S)Nc2ccc(C(F)(F)F)cc2)CC1` [Example 730, 4-[({5-[(4-fluorophenyl)sulfonyl]-2-isopropylphenyl}sulfonyl)amino]-N-[4-(trifluoromethyl)phenyl]piperidine-1-carbothioamide], the fold induction at 10 µM is 2.2.

Usually EC50 stands for the concentration needed to bring the measured effect to its halfway point. Low readings indicate higher potency in that assay, high ones lower potency in that assay.
